Measurements as given in patent EP2068152A1, “c-Kit as a novel target for the treatment of pain” (Max-Delbrück-Centrum für Molekulare Medizin (MDC), priority 2007, dated 2009).

Legend:
C-fiber nociceptors = experiment: In vitro skin nerve preparation: noxious heat response of CMH fibers from treated mice; format: in vivo
Experimental: The conduction velocity cut-off between Aβ and Aδ fibers was determined to be 9 m/s in c-Kit mutants based on measurements of the Aβ and Aδ wave in compound action potential recordings as previously described (Koltzenburg et al., 1997).

Aβ mechanoreceptors = conditions: animals treated as adults with imatinib
c-Kit = experiment: Paw withdrawal test (radiant heat); format: in vivo, mice
Experimental: Paw withdrawal test. In the radiant paw-withdrawal test the mice were placed in a Plexiglas chamber (15 cm diameter, 22.5 cm in height). The stimulus was a high intensity beam directed at the plantar surface of the hindpaw; movement of the paw away from the beam results in the heat source being terminated, with the withdrawal latency indicated on a digital screen (Ugo Basile, Milan, Italy). Paw withdrawal latencies were determined alternately from both hindpaws (stimuli given every 30- 40 s). Criteria for inclusion of a data point were calm behavior of the mouse just prior to testing, and a clear paw withdrawal from the hot beam associated with paw flicking and grooming. Baseline values were taken once a day at the same time for a period of 3 days. c-Kit ligand (Stem Cell Factor, SCF, R&D Systems) was injected once intraperitoneally (1 mg/kg i.p.) into TRPV1 -l- and control C57B1/6 mice (adult females, 6- 8 weeks, 20-25 g body weight), and response latencies to radiant heating of the hind paw was measured at various times after injection as described.
The inventors therefore used the mast cell degranulating agent 48/80 to deplete resident mast cells of neuroactive substances prior to the administration of SCF.

Cc1ccc(NC(=O)c2ccc(CN3CCN(C)CC3)cc2)cc1Nc1nccc(-c2cccnc2)n1 [imatinib, 4-[(4-Methyl-1-piperazinyl)methyl]-N-[4-methyl-3-[[4-(3-pyridinyl)-2-pyrimidinyl]amino]-phenyl]benzamide]
C-fiber heat sensitivity (C-fiber nociceptors; imatinib 0.1 mg/g sub-cutaneously for 6-7 days): reduction in C-fiber heat sensitivity that was almost identical to that found in c-Kit^-/- and c-Kit^+/- mice | number of spikes per 1 second time window during the heat ramp (CMH fibers), curve versus control (C-fiber nociceptors; imatinib treated adult mice, heat ramp 32°C to 60°C, Two way ANOVA F=7.67 p<0.01): significantly different from control | fibers with responses >60 spikes/stimulus (high responders) (C-fiber nociceptors; imatinib treated mice, figure stated together with c-kit mutant mice, control C-fibers 47%): ~16% | proportion of RAM and SAM receptors (Aβ mechanoreceptors): no change in proportion of RAM and SAM receptors | foot withdrawal latency to noxious heat (c-Kit; 5 days after daily imatinib treatment, 0.1 mg/g sub-cutaneously, n=6, vehicle treated mice 129 ±35%): 160 ±39 % of starting values | thermal hyperalgesia after SCF in pre-treated mice (c-Kit; two subcutaneous injections (0.1 mg/g) 18 hrs and 1 hr before SCF (1 µg/g, i.p.)): did not display any significant thermal hyperalgesia
